Measured values published in ChEMBL document CHEMBL5096239, “Two Binding Sites of SARS-CoV-2 Macrodomain 3 Probed by Oxaprozin and Meclomen” (J Med Chem, 2022).

Legend:
[1] = Binding affinity to 15N-labelled His6-tagged SARS-CoV-2 Mac3 (551 to 675 residues) V635I mutant expressed in Escherichia coli Rosetta by NMR HSQC spectral analysis; set-up: species or system Severe acute respiratory syndrome coronavirus 2
[2] = Binding affinity to 15N-labelled MTSL-tagged SARS-CoV-2 Mac3 (551 to 675 residues) T583C mutant expressed in Escherichia coli Rosetta by transferred PRE analysis; set-up: species or system Severe acute respiratory syndrome coronavirus 2

For `Cc1ccc(Cl)c(Nc2ccccc2C(=O)O)c1Cl` [MECLOFENAMIC ACID], the Kd [1] was 300 µM and the Kd [2] was 700 µM.
